Where two headings read alike, the source gives them in different places.
Key:
HCN4 = target: T1, HCN4 (Homo sapiens, UniProt Q9Y3Q4); experiment: automated patch clamp (SyncroPatch […]PE); format: cell-based
T1 construct: stably expressed in HEK 293 cells; If current; homotetramer
T1 sequence (Q9Y3Q4 1-1203): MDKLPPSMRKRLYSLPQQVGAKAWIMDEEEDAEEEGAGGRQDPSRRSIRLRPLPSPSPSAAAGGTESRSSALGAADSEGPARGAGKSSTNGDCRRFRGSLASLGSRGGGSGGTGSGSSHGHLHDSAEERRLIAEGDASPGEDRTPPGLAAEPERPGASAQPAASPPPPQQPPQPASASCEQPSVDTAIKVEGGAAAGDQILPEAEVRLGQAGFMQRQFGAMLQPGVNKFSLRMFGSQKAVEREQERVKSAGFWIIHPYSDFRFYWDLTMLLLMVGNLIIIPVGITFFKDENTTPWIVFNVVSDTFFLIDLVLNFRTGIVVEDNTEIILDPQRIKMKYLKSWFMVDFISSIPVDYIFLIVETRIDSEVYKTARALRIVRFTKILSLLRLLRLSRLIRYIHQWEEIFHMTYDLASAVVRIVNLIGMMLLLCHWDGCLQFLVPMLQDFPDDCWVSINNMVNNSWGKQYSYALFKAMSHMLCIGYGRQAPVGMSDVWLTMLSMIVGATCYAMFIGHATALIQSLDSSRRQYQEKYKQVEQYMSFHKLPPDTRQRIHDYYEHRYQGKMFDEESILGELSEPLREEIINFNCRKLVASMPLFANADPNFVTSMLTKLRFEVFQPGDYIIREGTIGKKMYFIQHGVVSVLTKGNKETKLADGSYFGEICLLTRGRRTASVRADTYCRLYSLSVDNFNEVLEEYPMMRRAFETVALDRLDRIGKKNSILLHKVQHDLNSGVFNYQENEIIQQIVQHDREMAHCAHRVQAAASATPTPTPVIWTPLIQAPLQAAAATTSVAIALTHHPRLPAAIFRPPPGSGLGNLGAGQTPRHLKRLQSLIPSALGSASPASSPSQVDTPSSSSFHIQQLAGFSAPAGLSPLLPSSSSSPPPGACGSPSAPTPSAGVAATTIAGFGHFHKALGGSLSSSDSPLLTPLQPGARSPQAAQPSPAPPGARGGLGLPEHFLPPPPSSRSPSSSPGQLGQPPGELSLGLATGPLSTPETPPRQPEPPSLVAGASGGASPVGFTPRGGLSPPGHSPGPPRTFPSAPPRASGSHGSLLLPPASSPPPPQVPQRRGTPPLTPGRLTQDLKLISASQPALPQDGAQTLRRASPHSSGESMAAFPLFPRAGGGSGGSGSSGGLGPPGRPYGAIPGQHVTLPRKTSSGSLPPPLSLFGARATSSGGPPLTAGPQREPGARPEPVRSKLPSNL

[1] = target: T2, CaV1.2 (coexpressed with β2/α2δ1) (Homo sapiens, UniProt Q13936); experiment: automated patch clamp (SyncroPatch […]PE); format: cell-based; settings: read-out: CaV1.2 peak
T2 construct: gene CACNA1C; stably expressed in CHO cells with beta2 and alpha2delta1; with Voltage-dependent L-type calcium channel subunit beta-2; Voltage-dependent calcium channel subunit alpha-2/delta-1

hERG = target: T3, hERG (Homo sapiens, UniProt Q12809); experiment: automated patch clamp (SyncroPatch […]PE); format: cell-based
T3 construct: gene KCNH2; stably expressed in CHO cells; IKr current; homotetramer

KV7.1/minK = target: T4, KV7.1/minK (Homo sapiens, UniProt P51787); experiment: automated patch clamp (SyncroPatch […]PE); format: cell-based
T4 construct: gene KCNQ1; stably expressed in CHO cells; IKs current

NaV1.5 = target: T5, NaV1.5 (Homo sapiens, UniProt Q14524); experiment: automated patch clamp (SyncroPatch […]PE); format: cell-based; settings: read-out: NaV1.5 peak
T5 construct: gene SCN5A; stably expressed in CHO cells; no beta subunit mentioned

Kir2.1 = target: T6, Kir2.1 (Homo sapiens, UniProt P63252); experiment: automated patch clamp (QPatch); format: cell-based
T6 construct: gene KCNJ2; stably expressed in CHO cells; IK1 current; homotetramer
T6 sequence (P63252 1-427): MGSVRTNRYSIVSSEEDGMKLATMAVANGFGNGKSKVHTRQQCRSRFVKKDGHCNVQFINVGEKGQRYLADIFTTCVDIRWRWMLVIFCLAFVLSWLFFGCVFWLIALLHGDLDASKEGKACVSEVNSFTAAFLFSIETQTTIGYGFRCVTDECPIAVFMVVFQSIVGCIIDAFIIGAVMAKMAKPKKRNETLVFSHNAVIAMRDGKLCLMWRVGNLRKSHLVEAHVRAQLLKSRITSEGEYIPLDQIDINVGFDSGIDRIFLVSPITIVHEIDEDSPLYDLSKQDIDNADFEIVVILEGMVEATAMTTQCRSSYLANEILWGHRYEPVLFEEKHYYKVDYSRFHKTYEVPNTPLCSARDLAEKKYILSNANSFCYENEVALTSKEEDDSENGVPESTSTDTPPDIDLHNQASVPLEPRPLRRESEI
Excerpt: automated patch clamp (QPatch) on Kir2.1

[2] = automated patch clamp (SyncroPatch […]PE); format: cell-based, Homo sapiens; settings: read-out: CaV1.2 ramp
[3] = automated patch clamp (SyncroPatch […]PE); format: cell-based, Homo sapiens; settings: read-out: CaV1.2 ramp; remark: listed apart in the source

T2 sequence (Q13936 whole entry): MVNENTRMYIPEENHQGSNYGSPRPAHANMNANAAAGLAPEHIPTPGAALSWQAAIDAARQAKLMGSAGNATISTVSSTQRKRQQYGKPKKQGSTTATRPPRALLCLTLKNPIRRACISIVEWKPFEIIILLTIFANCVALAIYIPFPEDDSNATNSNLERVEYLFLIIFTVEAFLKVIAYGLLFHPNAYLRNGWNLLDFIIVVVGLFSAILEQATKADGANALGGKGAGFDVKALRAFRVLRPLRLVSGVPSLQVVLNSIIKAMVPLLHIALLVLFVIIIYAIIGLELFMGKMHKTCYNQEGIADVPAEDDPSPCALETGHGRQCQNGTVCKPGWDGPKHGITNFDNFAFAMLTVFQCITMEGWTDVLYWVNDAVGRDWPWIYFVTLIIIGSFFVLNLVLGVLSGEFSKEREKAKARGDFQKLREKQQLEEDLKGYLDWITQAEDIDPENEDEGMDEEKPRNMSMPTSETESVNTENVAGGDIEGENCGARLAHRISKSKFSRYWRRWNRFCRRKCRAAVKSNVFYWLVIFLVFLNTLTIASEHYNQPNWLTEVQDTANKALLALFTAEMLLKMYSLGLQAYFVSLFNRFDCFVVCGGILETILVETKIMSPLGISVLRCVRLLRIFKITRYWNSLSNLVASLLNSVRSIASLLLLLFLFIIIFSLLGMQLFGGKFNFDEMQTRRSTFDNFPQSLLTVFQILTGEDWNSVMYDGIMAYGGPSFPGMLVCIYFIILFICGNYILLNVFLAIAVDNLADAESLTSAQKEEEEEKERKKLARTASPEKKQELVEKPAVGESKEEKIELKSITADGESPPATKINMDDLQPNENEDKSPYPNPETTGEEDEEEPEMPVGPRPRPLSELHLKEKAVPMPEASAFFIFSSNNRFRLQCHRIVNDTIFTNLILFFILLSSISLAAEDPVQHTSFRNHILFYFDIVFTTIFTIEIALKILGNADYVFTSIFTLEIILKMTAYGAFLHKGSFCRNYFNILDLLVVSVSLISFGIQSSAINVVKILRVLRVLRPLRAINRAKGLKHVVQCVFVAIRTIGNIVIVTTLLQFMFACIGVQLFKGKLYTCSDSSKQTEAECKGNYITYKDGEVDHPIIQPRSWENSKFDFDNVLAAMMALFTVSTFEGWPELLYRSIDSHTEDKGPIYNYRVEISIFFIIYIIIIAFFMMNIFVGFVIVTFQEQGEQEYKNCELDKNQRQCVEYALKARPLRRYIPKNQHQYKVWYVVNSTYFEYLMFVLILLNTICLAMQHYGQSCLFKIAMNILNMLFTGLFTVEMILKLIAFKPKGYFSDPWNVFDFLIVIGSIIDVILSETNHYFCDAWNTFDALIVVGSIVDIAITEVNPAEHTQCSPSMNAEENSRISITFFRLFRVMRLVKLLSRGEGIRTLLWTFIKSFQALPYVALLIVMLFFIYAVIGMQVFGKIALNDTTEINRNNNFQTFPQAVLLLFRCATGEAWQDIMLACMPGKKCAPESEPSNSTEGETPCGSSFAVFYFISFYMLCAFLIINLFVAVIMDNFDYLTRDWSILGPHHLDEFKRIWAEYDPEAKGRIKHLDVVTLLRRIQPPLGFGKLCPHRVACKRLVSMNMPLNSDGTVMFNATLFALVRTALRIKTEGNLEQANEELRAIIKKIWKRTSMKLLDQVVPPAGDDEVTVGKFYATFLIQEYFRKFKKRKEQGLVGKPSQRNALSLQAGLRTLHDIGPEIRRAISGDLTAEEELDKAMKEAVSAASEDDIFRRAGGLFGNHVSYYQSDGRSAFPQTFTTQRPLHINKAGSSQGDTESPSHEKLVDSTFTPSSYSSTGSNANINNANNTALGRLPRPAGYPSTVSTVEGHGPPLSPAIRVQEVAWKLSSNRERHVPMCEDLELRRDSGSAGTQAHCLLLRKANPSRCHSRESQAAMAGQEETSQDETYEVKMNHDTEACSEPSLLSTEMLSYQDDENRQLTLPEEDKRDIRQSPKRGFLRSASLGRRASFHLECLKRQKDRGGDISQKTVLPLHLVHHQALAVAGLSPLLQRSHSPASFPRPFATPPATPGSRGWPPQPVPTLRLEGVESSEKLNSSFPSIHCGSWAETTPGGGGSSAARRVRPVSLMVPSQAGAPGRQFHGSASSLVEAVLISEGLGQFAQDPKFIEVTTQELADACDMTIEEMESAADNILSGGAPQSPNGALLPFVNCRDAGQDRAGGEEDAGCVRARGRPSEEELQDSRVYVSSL
T2 sequence (Q08289 whole entry partner): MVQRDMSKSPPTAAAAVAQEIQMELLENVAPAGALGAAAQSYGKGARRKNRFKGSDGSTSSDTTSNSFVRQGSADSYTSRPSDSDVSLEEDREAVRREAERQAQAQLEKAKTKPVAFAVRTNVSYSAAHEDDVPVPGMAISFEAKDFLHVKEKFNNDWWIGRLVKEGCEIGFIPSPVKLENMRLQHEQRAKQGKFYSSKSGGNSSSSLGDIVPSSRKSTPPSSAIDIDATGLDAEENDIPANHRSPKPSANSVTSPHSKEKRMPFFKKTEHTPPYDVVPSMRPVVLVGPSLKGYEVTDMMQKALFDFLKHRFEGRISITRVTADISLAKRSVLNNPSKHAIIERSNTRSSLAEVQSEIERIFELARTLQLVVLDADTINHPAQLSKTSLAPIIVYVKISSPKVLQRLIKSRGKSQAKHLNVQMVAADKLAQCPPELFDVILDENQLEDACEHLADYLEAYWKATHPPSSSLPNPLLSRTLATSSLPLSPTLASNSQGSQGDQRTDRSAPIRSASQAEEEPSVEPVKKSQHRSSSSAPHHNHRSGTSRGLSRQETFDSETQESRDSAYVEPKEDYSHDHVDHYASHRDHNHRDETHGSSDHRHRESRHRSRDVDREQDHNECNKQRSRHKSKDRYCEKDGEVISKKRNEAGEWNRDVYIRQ
T2 sequence (P54289 25-956 partner): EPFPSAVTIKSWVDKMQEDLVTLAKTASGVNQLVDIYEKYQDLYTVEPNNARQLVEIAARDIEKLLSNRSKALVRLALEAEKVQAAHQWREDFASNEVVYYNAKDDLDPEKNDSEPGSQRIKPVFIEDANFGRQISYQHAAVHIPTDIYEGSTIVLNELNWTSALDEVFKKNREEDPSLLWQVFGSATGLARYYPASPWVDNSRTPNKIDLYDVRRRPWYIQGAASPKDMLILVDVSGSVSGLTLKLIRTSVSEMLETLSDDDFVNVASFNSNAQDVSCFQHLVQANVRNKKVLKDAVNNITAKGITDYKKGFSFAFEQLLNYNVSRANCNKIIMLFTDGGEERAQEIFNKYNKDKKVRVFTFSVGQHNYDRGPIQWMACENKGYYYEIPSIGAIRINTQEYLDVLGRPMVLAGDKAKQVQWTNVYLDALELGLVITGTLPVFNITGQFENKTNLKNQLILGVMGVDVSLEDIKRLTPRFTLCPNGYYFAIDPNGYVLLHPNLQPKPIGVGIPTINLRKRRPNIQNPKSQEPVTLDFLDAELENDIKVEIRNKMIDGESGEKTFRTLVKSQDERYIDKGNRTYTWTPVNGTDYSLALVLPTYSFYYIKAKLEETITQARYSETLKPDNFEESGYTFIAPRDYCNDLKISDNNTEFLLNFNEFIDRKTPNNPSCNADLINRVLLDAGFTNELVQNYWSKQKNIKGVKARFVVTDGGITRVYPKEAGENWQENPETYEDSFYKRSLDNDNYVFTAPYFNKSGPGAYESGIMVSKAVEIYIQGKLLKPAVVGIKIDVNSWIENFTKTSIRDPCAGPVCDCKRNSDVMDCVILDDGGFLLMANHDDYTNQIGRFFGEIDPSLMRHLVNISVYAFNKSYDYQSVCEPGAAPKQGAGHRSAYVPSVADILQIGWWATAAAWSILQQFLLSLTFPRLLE
T2 sequence (P54289 957-1103 partner): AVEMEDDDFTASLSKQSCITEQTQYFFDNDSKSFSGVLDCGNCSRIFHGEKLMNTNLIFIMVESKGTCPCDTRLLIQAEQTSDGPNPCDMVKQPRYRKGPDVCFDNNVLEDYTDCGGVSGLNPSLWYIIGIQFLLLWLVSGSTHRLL
T4 sequence (P51787 whole entry): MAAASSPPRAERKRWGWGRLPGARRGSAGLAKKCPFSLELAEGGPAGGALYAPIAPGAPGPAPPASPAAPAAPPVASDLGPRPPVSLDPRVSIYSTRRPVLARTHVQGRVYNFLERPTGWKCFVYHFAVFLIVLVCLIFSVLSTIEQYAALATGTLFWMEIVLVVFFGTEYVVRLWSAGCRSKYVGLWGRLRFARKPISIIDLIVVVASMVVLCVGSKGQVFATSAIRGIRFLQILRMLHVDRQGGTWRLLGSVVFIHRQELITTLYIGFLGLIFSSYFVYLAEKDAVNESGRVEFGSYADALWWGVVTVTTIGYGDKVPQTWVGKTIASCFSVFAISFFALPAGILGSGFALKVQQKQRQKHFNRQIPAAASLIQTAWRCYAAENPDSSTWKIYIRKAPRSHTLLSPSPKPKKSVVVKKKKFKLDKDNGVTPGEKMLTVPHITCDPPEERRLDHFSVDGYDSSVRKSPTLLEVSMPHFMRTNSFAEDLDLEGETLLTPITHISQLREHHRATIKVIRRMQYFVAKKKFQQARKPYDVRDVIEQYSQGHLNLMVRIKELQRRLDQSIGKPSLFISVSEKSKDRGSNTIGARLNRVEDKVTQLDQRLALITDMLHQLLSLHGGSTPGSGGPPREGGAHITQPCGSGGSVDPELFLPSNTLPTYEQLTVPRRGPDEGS

IC50 (HCN4; read-out: HCN4) [µM]	IC50 (Kir2.1; read-out: Kir2.1) [µM]	Compound	IC50 (HCN4; read-out: NaV1.5 late) [µM]	IC50 [1] [µM]	IC50 (hERG) [µM]	IC50 (KV7.1/minK; read-out: NaV1.5 late) [µM]	IC50 (NaV1.5) [µM]	IC50 (Kir2.1; read-out: NaV1.5 late) [µM]	IC50 [2] [µM]	IC50 (HCN4; read-out: NaV1.5 peak) [µM]	IC50 (KV7.1/minK; read-out: NaV1.5 peak) [µM]	IC50 [3] [µM]	IC50 (Kir2.1; read-out: NaV1.5 peak) [µM]
		CC[C@H]1OC(=O)[C@H](C)[C@@H](O[C@H]2C[C@@](C)(OC)[C@@H](O)[C@H](C)O2)[C@H](C)[C@@H](O[C@@H]2O[C@H](C)C[C@H](N(C)C)[C@H]2O)[C@](C)(O)C[C@@H](C)CN(C)[C@H](C)[C@@H](O)[C@]1(C)O [azithromycin]	> 1000	771	439	> 1000	612	> 1000					
96.2	4.98	CCN(CC)CCCC(C)Nc1ccnc2cc(Cl)ccc12 (stereo not shown) [chloroquine]		17.9			13.9		> 300				
		CC[C@H]1OC(=O)[C@H](C)[C@@H](O[C@H]2C[C@@](C)(OC)[C@@H](O)[C@H](C)O2)[C@H](C)[C@@H](O[C@@H]2O[C@H](C)C[C@H](N(C)C)[C@H]2O)[C@](C)(O)C[C@@H](C)C(=O)[C@H](C)[C@@H](O)[C@]1(C)O [erythromycin]								> 1000	> 1000		
		CCN(CCO)CCCC(C)Nc1ccnc2cc(Cl)ccc12 (stereo not shown) [hydroxychloroquine]		23.9	2.66		17		> 300			> 300	44.2
